Data reported in ChEMBL document CHEMBL1126979, “Studies toward structure-activity relationships of taxol: synthesis and cytotoxicity of taxol analogues with C-2 modified phenylisoserine side chains” (Bioorg Med Chem Lett, 1993).

Test system: HCT-116
Assay: Compound was evaluated by a cytotoxicity assay in HCT116 human colon carcinoma cell line
Type: functional, cell-based

| Compound | IC50 |
| --- | --- |
| CC(=O)O[C@H]1C(=O)[C@@]2(C)C([C@H](OC(=O)c3ccccc3)[C@]3(O)C[C@H](OC(=O)C[C@@H](NC(=O)c4ccccc4)c4ccccc4)C(C)=C1C3(C)C)[C@]1(OC(C)=O)CO[C@@H]1C[C@@H]2O (some centres undefined) | 297 nM |
| CO[C@@H](C(=O)O[C@H]1C[C@@]2(O)[C@@H](OC(=O)c3ccccc3)C3[C@](C)(C(=O)[C@H](OC(C)=O)C(=C1C)C2(C)C)[C@@H](O)C[C@H]1OC[C@@]31OC(C)=O)[C@@H](NC(=O)c1ccccc1)c1ccccc1 (some centres undefined) | 866 nM |
| CC(=O)O[C@H]1C(=O)[C@@]2(C)[C@H]([C@H](OC(=O)c3ccccc3)[C@]3(O)C[C@H](OC(=O)[C@H](O)[C@@H](NC(=O)c4ccccc4)c4ccccc4)C(C)=C1C3(C)C)[C@]1(OC(C)=O)CO[C@@H]1C[C@@H]2O [PACLITAXEL] | 4 nM |
| CC(=O)O[C@H]1C(=O)[C@@]2(C)C([C@H](OC(=O)c3ccccc3)[C@]3(O)C[C@H](OC(=O)[C@H](F)[C@@H](NC(=O)c4ccccc4)c4ccccc4)C(C)=C1C3(C)C)[C@]1(OC(C)=O)CO[C@@H]1C[C@@H]2O (some centres undefined) | 475 nM |
